Results published in ChEMBL document CHEMBL4507295 (2021).

Experiments:
[1] = biological target: Casein kinase I isoform epsilon (Homo sapiens) (UniProt P49674); details: Compound concentration 1000.0 nM
[2] = biological target: Serine/threonine-protein kinase STK11 (Homo sapiens) (UniProt Q15831); details: Compound concentration 1000.0 nM
[3] = biological target: Casein kinase I isoform gamma-3 (Homo sapiens) (UniProt Q9Y6M4); details: Compound concentration 1000.0 nM
[4] = biological target: Serine/threonine-protein kinase TBK1 (Homo sapiens) (UniProt Q9UHD2); details: Compound concentration 1000.0 nM
[5] = biological target: Ribosomal protein S6 kinase alpha-5 (Homo sapiens) (UniProt O75582); details: Compound concentration 1000.0 nM
[6] = biological target: Calcium/calmodulin-dependent protein kinase kinase 2 (Homo sapiens) (UniProt Q96RR4); details: Compound concentration 1000.0 nM
[7] = system: Tyrosine-protein kinase ABL1 (Homo sapiens), P00519 [H396P]; details: Compound concentration 1000.0 nM
[8] = biological target: Ephrin type-B receptor 6 (Homo sapiens) (UniProt O15197); details: Compound concentration 1000.0 nM
[9] = biological target: Activin receptor type-2B (Homo sapiens) (UniProt Q13705); details: Compound concentration 1000.0 nM
[10] = biological target: Tyrosine-protein kinase Tec (Homo sapiens) (UniProt P42680); details: Compound concentration 1000.0 nM
[11] = biological target: Mitogen-activated protein kinase kinase kinase 2 (Homo sapiens) (UniProt Q9Y2U5); details: Compound concentration 1000.0 nM
[12] = biological target: Mitogen-activated protein kinase kinase kinase 9 (Homo sapiens) (UniProt P80192); details: Compound concentration 1000.0 nM
[13] = biological target: Cyclin-dependent kinase 2 (Homo sapiens) (UniProt P24941); details: Compound concentration 1000.0 nM
[14] = biological target: Proto-oncogene tyrosine-protein kinase receptor Ret (Homo sapiens) (UniProt P07949); details: Compound concentration 1000.0 nM
[15] = biological target: Serine/threonine-protein kinase Sgk1 (Homo sapiens) (UniProt O00141); details: Compound concentration 1000.0 nM
[16] = biological target: Mitogen-activated protein kinase 4 (Homo sapiens) (UniProt P31152); details: Compound concentration 1000.0 nM
[17] = biological target: Ephrin type-A receptor 1 (Homo sapiens) (UniProt P21709); details: Compound concentration 1000.0 nM
[18] = biological target: Ankyrin repeat and protein kinase domain-containing protein 1 (Homo sapiens) (UniProt Q8NFD2); details: Compound concentration 1000.0 nM
[19] = biological target: Phosphorylase b kinase regulatory subunit alpha, liver isoform (Homo sapiens) (UniProt P46019); details: Compound concentration 1000.0 nM
[20] = biological target: Serine/threonine-protein kinase PAK 2 (Homo sapiens) (UniProt Q13177); details: Compound concentration 1000.0 nM
[21] = biological target: Sigma intracellular receptor 2 (Homo sapiens) (UniProt Q5BJF2); details: Compound concentration 10.0 uM
[22] = biological target: Calcium/calmodulin-dependent protein kinase type IV (Homo sapiens) (UniProt Q16566); details: Compound concentration 1000.0 nM
[23] = biological target: Serine/threonine-protein kinase Nek2 (Homo sapiens) (UniProt P51955); details: Compound concentration 1000.0 nM
[24] = biological target: Cyclin-dependent kinase-like 3 (Homo sapiens) (UniProt Q8IVW4); details: Compound concentration 1000.0 nM
[25] = biological target: Serine/threonine-protein kinase PAK 1 (Homo sapiens) (UniProt Q13153); details: Compound concentration 1000.0 nM
[26] = biological target: T1, D(4) dopamine receptor (Homo sapiens) (UniProt P21917); details: Compound concentration 10.0 uM
T1 sequence (whole entry): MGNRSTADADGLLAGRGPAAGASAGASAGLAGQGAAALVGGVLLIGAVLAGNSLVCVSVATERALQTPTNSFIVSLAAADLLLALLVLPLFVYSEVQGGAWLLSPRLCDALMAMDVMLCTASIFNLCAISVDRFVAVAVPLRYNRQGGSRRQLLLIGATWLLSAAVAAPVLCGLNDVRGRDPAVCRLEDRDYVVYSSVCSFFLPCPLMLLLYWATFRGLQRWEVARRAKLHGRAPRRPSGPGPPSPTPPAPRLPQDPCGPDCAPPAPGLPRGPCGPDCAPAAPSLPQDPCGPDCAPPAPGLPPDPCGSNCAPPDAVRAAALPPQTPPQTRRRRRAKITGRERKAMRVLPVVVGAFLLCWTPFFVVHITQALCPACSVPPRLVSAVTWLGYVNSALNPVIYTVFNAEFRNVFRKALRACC

[27] = biological target: Tyrosine-protein kinase ABL1 (Homo sapiens) (UniProt P00519); details: Compound concentration 1000.0 nM
[28] = system: ALK tyrosine kinase receptor (Homo sapiens), Q9UM73 [C1156Y]; details: Compound concentration 1000.0 nM
[29] = biological target: Mitogen-activated protein kinase 9 (Homo sapiens) (UniProt P45984); details: Compound concentration 1000.0 nM
[30] = system: Serine/threonine-protein kinase B-raf (Homo sapiens), P15056 [V600E]; details: Compound concentration 1000.0 nM
[31] = biological target: Cyclin-dependent kinase-like 2 (Homo sapiens) (UniProt Q92772); details: Compound concentration 1000.0 nM
[32] = biological target: Dual specificity protein kinase CLK4 (Homo sapiens) (UniProt Q9HAZ1); details: Compound concentration 1000.0 nM
[33] = biological target: T2, Muscarinic acetylcholine receptor M5 (Homo sapiens) (UniProt P08912); details: Compound concentration 10.0 uM
T2 sequence (whole entry): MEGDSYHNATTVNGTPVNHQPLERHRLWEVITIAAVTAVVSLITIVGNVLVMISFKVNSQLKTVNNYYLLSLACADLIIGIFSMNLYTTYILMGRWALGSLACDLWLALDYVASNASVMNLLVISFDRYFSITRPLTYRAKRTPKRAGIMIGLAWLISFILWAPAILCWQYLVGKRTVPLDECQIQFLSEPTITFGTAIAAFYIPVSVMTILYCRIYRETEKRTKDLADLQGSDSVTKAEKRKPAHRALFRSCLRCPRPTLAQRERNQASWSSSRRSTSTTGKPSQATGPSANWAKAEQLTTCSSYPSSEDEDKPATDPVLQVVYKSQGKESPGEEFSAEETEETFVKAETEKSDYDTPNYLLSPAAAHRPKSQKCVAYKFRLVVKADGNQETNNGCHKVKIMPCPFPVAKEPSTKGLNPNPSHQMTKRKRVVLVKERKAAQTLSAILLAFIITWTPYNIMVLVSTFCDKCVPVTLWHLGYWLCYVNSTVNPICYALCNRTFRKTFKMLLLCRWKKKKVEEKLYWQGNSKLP

Serine/threonine-protein kinase B-raf (Homo sapiens), P15056 [V600E], sequence (P15056 whole entry V600E): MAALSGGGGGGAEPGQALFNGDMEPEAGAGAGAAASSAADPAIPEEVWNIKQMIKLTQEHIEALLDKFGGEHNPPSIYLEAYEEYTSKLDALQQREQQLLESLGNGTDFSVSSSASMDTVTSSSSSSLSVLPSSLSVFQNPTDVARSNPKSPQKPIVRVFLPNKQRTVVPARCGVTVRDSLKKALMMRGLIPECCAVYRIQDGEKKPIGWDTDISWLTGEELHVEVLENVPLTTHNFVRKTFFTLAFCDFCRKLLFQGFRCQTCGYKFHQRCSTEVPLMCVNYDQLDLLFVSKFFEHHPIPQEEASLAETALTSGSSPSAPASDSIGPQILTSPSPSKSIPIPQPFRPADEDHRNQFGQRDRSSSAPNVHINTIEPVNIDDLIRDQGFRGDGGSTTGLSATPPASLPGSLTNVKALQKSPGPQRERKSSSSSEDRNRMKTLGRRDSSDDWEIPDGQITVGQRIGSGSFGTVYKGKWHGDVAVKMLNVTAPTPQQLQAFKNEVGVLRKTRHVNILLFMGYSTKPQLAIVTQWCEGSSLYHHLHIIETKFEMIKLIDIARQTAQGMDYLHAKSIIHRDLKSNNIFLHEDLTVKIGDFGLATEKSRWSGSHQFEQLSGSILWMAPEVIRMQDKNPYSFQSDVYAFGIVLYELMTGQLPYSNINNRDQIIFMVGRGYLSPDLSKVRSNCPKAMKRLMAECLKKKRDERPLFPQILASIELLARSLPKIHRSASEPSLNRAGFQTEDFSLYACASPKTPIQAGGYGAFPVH
Sigma intracellular receptor 2 (Homo sapiens), sequence (Q5BJF2 whole entry): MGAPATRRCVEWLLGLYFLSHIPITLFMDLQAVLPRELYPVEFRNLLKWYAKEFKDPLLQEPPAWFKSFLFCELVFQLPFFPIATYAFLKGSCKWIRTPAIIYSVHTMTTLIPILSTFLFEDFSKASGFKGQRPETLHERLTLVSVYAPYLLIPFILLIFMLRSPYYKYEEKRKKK
Phosphorylase b kinase regulatory subunit alpha, liver isoform (Homo sapiens), sequence (P46019 whole entry, canonical isoform): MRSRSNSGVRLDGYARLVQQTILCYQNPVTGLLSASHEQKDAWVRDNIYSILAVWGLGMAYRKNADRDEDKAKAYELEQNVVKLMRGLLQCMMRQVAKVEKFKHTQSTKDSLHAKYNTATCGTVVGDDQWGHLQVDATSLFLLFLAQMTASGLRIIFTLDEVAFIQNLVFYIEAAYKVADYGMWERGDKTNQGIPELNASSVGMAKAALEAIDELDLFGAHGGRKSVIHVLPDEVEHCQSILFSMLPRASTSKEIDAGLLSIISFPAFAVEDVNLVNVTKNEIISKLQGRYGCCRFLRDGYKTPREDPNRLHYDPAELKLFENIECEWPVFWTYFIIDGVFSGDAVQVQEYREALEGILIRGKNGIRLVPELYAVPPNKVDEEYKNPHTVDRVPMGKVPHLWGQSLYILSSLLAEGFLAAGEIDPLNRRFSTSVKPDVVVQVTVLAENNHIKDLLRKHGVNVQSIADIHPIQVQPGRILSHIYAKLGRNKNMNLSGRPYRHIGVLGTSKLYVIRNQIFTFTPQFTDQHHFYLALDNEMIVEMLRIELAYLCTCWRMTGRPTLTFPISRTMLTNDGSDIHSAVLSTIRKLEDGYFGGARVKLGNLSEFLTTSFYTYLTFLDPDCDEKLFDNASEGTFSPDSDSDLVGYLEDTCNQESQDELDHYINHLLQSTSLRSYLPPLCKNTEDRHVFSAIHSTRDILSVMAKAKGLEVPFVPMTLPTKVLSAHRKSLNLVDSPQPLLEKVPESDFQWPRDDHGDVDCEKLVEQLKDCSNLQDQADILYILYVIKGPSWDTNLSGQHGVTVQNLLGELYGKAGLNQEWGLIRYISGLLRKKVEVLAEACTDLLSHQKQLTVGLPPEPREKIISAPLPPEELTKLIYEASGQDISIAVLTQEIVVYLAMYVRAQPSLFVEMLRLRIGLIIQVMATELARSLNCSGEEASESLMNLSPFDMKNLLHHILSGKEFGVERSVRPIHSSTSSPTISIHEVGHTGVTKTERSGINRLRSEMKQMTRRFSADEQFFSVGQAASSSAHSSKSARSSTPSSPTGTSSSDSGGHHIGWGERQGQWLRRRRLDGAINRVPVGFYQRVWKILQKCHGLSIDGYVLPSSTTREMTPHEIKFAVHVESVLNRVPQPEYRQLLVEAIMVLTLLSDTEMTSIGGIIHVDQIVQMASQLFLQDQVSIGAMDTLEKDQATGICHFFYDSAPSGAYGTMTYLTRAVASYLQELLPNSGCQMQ
Cyclin-dependent kinase-like 3 (Homo sapiens), sequence (Q8IVW4 whole entry, looked up): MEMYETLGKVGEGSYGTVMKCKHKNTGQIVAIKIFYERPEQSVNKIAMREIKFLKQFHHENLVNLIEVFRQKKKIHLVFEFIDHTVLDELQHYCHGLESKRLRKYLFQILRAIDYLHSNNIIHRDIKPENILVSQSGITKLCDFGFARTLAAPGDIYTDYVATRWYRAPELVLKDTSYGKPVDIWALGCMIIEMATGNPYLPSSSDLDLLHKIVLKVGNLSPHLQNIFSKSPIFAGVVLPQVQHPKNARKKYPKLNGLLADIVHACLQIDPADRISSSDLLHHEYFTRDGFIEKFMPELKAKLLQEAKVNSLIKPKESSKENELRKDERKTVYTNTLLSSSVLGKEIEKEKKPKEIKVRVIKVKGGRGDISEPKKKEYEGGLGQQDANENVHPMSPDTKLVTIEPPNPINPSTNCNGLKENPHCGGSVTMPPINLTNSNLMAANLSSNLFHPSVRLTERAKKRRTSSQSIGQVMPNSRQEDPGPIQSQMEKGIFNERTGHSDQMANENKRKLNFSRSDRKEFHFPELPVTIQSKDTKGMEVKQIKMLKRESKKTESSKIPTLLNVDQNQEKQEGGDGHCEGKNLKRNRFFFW
Mitogen-activated protein kinase 9 (Homo sapiens), sequence (P45984 whole entry, looked up): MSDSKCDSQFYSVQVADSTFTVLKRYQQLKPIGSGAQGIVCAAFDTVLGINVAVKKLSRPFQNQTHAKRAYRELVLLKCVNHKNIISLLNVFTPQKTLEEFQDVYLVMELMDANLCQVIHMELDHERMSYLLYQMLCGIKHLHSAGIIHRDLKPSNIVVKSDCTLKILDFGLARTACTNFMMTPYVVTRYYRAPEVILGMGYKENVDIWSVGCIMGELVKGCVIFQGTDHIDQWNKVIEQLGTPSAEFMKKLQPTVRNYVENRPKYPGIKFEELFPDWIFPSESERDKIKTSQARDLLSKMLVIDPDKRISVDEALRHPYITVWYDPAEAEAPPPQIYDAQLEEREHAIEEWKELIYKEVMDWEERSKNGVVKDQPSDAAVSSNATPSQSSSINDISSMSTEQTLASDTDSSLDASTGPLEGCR
Mitogen-activated protein kinase kinase kinase 2 (Homo sapiens), sequence (Q9Y2U5 whole entry): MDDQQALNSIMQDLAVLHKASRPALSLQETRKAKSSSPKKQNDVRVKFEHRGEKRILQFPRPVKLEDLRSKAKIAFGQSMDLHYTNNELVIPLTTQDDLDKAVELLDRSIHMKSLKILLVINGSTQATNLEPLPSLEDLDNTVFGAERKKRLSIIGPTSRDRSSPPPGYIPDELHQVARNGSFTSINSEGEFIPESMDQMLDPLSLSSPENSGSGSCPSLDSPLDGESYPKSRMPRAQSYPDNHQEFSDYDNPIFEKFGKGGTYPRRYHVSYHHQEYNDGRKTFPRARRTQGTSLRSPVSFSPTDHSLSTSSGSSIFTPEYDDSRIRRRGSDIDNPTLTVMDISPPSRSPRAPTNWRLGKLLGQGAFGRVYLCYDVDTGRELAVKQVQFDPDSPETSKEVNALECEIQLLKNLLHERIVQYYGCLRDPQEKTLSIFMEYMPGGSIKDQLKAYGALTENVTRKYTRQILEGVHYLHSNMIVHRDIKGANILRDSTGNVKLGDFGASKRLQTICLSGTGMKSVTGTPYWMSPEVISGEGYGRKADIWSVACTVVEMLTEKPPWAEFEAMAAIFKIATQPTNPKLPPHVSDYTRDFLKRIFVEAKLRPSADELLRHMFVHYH
Calcium/calmodulin-dependent protein kinase type IV (Homo sapiens), sequence (Q16566 whole entry): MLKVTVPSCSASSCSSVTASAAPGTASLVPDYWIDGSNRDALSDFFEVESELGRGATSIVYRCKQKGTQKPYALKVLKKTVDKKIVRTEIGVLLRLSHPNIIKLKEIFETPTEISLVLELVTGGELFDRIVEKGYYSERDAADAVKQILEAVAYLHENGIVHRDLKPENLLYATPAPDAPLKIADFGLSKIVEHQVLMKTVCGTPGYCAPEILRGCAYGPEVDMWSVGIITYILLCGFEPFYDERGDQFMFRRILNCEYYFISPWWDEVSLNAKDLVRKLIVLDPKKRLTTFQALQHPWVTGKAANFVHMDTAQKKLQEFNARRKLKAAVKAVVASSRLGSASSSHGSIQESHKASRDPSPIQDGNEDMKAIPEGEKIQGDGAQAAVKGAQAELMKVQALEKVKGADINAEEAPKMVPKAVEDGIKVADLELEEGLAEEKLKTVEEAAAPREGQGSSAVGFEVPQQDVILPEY
Tyrosine-protein kinase Tec (Homo sapiens), sequence (P42680 whole entry): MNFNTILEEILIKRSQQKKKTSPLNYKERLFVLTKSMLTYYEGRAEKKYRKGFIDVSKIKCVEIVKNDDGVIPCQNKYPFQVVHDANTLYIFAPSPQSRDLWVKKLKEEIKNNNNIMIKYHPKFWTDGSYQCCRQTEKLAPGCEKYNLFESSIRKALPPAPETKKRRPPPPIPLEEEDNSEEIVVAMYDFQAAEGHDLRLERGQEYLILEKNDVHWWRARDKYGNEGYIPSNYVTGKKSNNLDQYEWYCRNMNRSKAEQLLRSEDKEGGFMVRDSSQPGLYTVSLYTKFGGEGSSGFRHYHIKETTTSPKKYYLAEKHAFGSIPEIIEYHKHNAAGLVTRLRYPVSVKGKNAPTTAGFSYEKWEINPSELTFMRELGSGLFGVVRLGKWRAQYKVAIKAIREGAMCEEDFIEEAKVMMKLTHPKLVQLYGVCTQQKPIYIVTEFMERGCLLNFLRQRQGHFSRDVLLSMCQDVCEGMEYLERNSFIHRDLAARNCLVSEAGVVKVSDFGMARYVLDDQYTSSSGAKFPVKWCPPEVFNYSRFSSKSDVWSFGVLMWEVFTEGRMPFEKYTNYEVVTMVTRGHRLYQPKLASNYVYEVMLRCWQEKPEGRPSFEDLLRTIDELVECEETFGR

N#CC1(c2ccccn2)CCN(Cc2cc(C(=O)N3CCCC3)c(=O)n3ccccc23)CC1
inactive: residual activity [1] 100% | residual activity [2] 77% | residual activity [3] 76% | residual activity [4] 99% | residual activity [5] 88% | residual activity [6] 100% | residual activity [7] 77% | residual activity [8] 100% | residual activity [9] 75% | residual activity [10] 100% | residual activity [11] 100% | residual activity [12] 72% | residual activity [13] 86% | residual activity [14] 74% | residual activity [15] 100% | residual activity [16] 76% | residual activity [17] 83% | residual activity [18] 79% | residual activity [19] 85% | residual activity [20] 100% | inhibition [21] 24.1% | residual activity [22] 96% | residual activity [23] 95% | residual activity [24] 78% | residual activity [25] 100% | inhibition [26] -8.64% | residual activity [27] 78% | residual activity [28] 100% | residual activity [29] 97% | residual activity [30] 99% | residual activity [31] 93% | residual activity [32] 97% | inhibition [33] 0.56%

N#CC1(c2ccccn2)CCN(Cc2cc(C(=O)O)c(=O)n3ccccc23)CC1 [MSD-M1PAM]
inactive: residual activity [1] 100% | residual activity [2] 100% | residual activity [3] 93% | residual activity [4] 98% | residual activity [5] 100% | residual activity [6] 100% | residual activity [7] 80% | residual activity [8] 73% | residual activity [9] 97% | residual activity [10] 100% | residual activity [11] 76% | residual activity [12] 92% | residual activity [13] 100% | residual activity [14] 95% | residual activity [15] 87% | residual activity [16] 100% | residual activity [17] 100% | residual activity [18] 68% | residual activity [19] 100% | residual activity [20] 77% | inhibition [21] 5.17% | residual activity [22] 84% | residual activity [23] 100% | residual activity [24] 89% | residual activity [25] 86% | inhibition [26] -8.33% | residual activity [27] 98% | residual activity [28] 100% | residual activity [29] 83% | residual activity [30] 100% | residual activity [31] 100% | residual activity [32] 100% | inhibition [33] 4.74%
